# Legend:
# Assay in all cases: Inhibition of in vitro proliferation of tumor cells (CellTiter Glo)
# Assay type in all cases: cell-based, human
# Calu-6 = conditions: Calu-6, 120 h incubation
# Description: (§1) Human-derived tumor cells in logarithmic growth phase were taken, trypsin-digested and resuspended using fresh complete culture medium, counted and adjusted to an appropriate concentration, and added into 96-well cell culture plate at 100 μL/well. The cell culture plate was placed in a 37° C., 5% CO2 incubator and incubated overnight. On the next day, different concentrations of ADC samples to be tested (with the highest final concentration of 1 μM, and 4-fold gradient dilution) or buffer control were added to the corresponding wells of the cell culture plate, and continued to be incubated in a CO2 incubator for 120 h. After equilibrated to room temperature, the test plate was analyzed by using a CellTiter Glo assay kit (Promega, G7558) and a multifunctional enzyme labeling instrument (Enspire 2300, PerkinElmer) to detect luminescence readings. The cellular inhibition rate was calculated according to the following equation: inhibition rate (%)=(1−(RLUADC−RLUblank)/(RLUbuffer−RLUblank))×100%, wherein, RLU represents Relative Luminescence Units. XLFit was utilized to plot the pharmacodynamic inhibition rate curve and to calculate the IC50 values (see Tables 4 and 5).
# HepG2 = conditions: HepG2, 120 h incubation
# Description: as §1
# NCI-H1975 = conditions: NCI-H1975, 120 h incubation
# Description: as §1
# NCI-N87 = conditions: NCI-N87, 120 h incubation
# Description: as §1
substance,measurement,setting,value
Control ADC2: antibody Ifinatamab conjugated with linker-payload MC-GGFG-DXd,IC50,Calu-6,126 nM
same,IC50,HepG2,220 nM
same,IC50,NCI-H1975,650 nM
same,IC50,NCI-N87,288 nM
